Each block holds one compound with its values, some of them ahead of it.
Columns and labels:
Format in all cases: physicochemical
[1] = Photophysical measurements of terbium complexes in 1x PBS pH 7.4; conditions: for τPBS (fluorescence lifetime): 1x PBS pH 7.4; for Emission λmax: 1x PBS pH 7.4, 4 uM; for εmax / λmax, Abs: 1x PBS pH 7.4, 20 uM
Experimental: (§1) Photophysical measurements: UV/visible and emission spectra were recorded on a Horiba Scientific Dual FL spectrophotometer. Ligands loaded with terbium were diluted into 1×PBS (pH 7.4) to a concentration of 20 uM (for absorbance) or 4 uM (for emission). For emission spectra, the data were normalized to the highest fluorescence signal. The fluorescence lifetime was determined by plotting the ln of the signal decay over time then solving for r in Equation 1:
(§2) [formula] where It is the intensity at time t, α is a normalization term (the preexponential factor) and τ is the lifetime.

[2] = Fluorescence lifetimes of selected lanthanide (Tb, Eu, Dy, Sm) complexes; conditions: Table 1
Experimental: as §1, §2

[3] = Stability of Tb complexes (10 nM) in various buffers over 7 days; conditions: buffers with 0.05% TWEEN-20
Experimental: The stability of NCP190-Tb (10 nM) was measured over the course of 7 days in various different buffers. All buffers contained 0.05% TWEEN-20 detergent.
The stability of NCP134-Tb (10 nM) was measured over the course of 7 days in various different buffers. All buffers contained 0.05% TWEEN-20 detergent.

[4] = Fluorescence lifetimes of selected lanthanide (Tb, Eu, Dy, Sm) complexes
[5] = Dy and Sm complexes of NCP189, Table 3

τPBS (fluorescence lifetime) [1]: 2.10 ms
Emission λmax [1]: 545 nm
εmax [1]: 11,600 M^−1cm^−1
λmax, Abs [1]: 340 nm
Life Time [2]: 2.56 ms
Compound: O=C1NCCN2CCNC(=O)c3cccc(c3O)C(=O)NCCN(CCNC(=O)c3cccc1c3O)CCN1CCNC(=O)c3cccc(c3O)C(=O)NCCN(CCNC(=O)c3cccc(c3O)C(=O)NCC1)CC2 [NCP 134-Tb]
Stability in various buffers [3]: only significantly destabilized by EDTA, however to a greater extent relative to NCP190-Tb

τPBS (fluorescence lifetime) [1]: 2.06 ms
Emission λmax [1]: 545 nm
εmax [1]: 19,230 M^−1cm^−1
λmax, Abs [1]: 340 nm
Life Time [2]: 2.06 ms
Compound: O=C(O)CN1CCN2CCNC(=O)c3cccc(c3O)C(=O)NCCN(CCNC(=O)c3cccc(c3O)C1=O)CCN1CCNC(=O)c3cccc(c3O)C(=O)NCCN(CCNC(=O)c3cccc(c3O)C(=O)NCC1)CC2 [NCP 144-Tb]

τPBS (fluorescence lifetime) [1]: 0.97 ms
Emission λmax [1]: 545 nm
εmax [1]: 13,750 M^−1cm^−1
λmax, Abs [1]: 355 nm
Life Time [2]: 0.97 ms
Compound: O=C1NCCN2CCNC(=O)c3cc(Br)cc(c3O)C(=O)NCCN(CCNC(=O)c3cc(Br)cc1c3O)CCN1CCNC(=O)c3cc(Br)cc(c3O)C(=O)NCCN(CCNC(=O)c3cc(Br)cc(c3O)C(=O)NCC1)CC2 [NCP 158-Tb]

Life Time [2]: 2.23 ms
Compound: O=C(CN1CCN2CCNC(=O)c3cccc(c3O)C(=O)NCCN(CCNC(=O)c3cccc(c3O)C1=O)CCN1CCNC(=O)c3cccc(c3O)C(=O)NCCN(CCNC(=O)c3cccc(c3O)C(=O)NCC1)CC2)NCCOCCOCCCCCCCl [NCP 166-Tb]

Life Time [2]: 1.99 ms
Compound: Nc1nc(CCc2ccc(CNC(=O)CN3CCN4CCNC(=O)c5cccc(c5O)C(=O)NCCN(CCNC(=O)c5cccc(c5O)C3=O)CCN3CCNC(=O)c5cccc(c5O)C(=O)NCCN(CCNC(=O)c5cccc(c5O)C(=O)NCC3)CC4)cc2)c2[nH]cnc2n1 [NCP 169-Tb]

Life Time [4, 5]: 22.7 ms
Compound: O=C(O)CCCCCN1CCN2CCNC(=O)c3cccc(c3O)C(=O)NCCN(CCNC(=O)c3cccc(c3O)C1=O)CCN1CCNC(=O)c3cccc(c3O)C(=O)NCCN(CCNC(=O)c3cccc(c3O)C(=O)NCC1)CC2 [NCP 189-Dy]

Life Time ([4]; Eu complexes, Table 2): 598 µs
Compound: O=C(O)CCCCCN1CCN2CCNC(=O)c3cccc(c3O)C(=O)NCCN(CCNC(=O)c3cccc(c3O)C1=O)CCN1CCNC(=O)c3cccc(c3O)C(=O)NCCN(CCNC(=O)c3cccc(c3O)C(=O)NCC1)CC2 [NCP 189-Eu]

Life Time [4, 5]: 28.1 ms
Compound: O=C(O)CCCCCN1CCN2CCNC(=O)c3cccc(c3O)C(=O)NCCN(CCNC(=O)c3cccc(c3O)C1=O)CCN1CCNC(=O)c3cccc(c3O)C(=O)NCCN(CCNC(=O)c3cccc(c3O)C(=O)NCC1)CC2 [NCP 189-Sm]

Life Time [2]: 1.79 ms
Compound: O=C(O)CCCCCN1CCN2CCNC(=O)c3cccc(c3O)C(=O)NCCN(CCNC(=O)c3cccc(c3O)C1=O)CCN1CCNC(=O)c3cccc(c3O)C(=O)NCCN(CCNC(=O)c3cccc(c3O)C(=O)NCC1)CC2 [NCP 189-Tb]

Life Time [2]: 2.46 ms
Stability in various buffers [3]: only significantly destabilized by EDTA
Compound: O=C(CCCCCN1CCN2CCNC(=O)c3cccc(c3O)C(=O)NCCN(CCNC(=O)c3cccc(c3O)C1=O)CCN1CCNC(=O)c3cccc(c3O)C(=O)NCCN(CCNC(=O)c3cccc(c3O)C(=O)NCC1)CC2)NCCOCCOCCCCCCCl [NCP 190-Tb]

Life Time [2]: 2.11 ms
Compound: Nc1nc(CCc2ccc(CNC(=O)CCCCCN3CCN4CCNC(=O)c5cccc(c5O)C(=O)NCCN(CCNC(=O)c5cccc(c5O)C3=O)CCN3CCNC(=O)c5cccc(c5O)C(=O)NCCN(CCNC(=O)c5cccc(c5O)C(=O)NCC3)CC4)cc2)c2nc[nH]c2n1 [NCP 191-Tb]

Life Time ([4]; Eu complexes, Table 2): 651 µs
Compound: O=C(O)CCCCCN1CCN2CCNC(=O)c3cccc(c3O)C(=O)NCCN(CCNC(=O)c3cccc(n3)C1=O)CCN1CCNC(=O)c3cccc(c3O)C(=O)NCCN(CCNC(=O)c3cccc(c3O)C(=O)NCC1)CC2 [NCP 227-Eu]

Life Time [2]: 1.20 ms
Compound: O=C(O)CCCCCN1CCN2CCNC(=O)c3cccc(c3O)C(=O)NCCN(CCNC(=O)c3cccc(n3)C1=O)CCN1CCNC(=O)c3cccc(c3O)C(=O)NCCN(CCNC(=O)c3cccc(c3O)C(=O)NCC1)CC2 [NCP 227-Tb]

Life Time ([4]; Eu complexes, Table 2): 657 µs
Compound: O=C(O)CCCCCN1CCN2CCNC(=O)c3cccc(c3O)C(=O)NCCN(CCNC(=O)c3cccc(c3)C1=O)CCN1CCNC(=O)c3cccc(c3O)C(=O)NCCN(CCNC(=O)c3cccc(c3O)C(=O)NCC1)CC2 [NCP 259-Eu]

Life Time [2]: 1.37 ms
Compound: O=C(O)CCCCCN1CCN2CCNC(=O)c3cccc(c3O)C(=O)NCCN(CCNC(=O)c3cccc(c3)C1=O)CCN1CCNC(=O)c3cccc(c3O)C(=O)NCCN(CCNC(=O)c3cccc(c3O)C(=O)NCC1)CC2 [NCP 259-Tb]

Life Time ([4]; Eu complexes, Table 2): 609 µs
Compound: O=C1NCCN2CCNC(=O)c3cccc(c3O)C(=O)NCCN(CCNC(=O)c3cccc1c3O)CC(=O)N1CCNC(=O)c3cccc(c3O)C(=O)NCCN(CCNC(=O)c3cccc(c3O)C(=O)NCC1)CC2 [NCP 272-Eu]

Life Time [2]: 1.53 ms
Compound: O=C1NCCN2CCNC(=O)c3cccc(c3O)C(=O)NCCN(CCNC(=O)c3cccc1c3O)CC(=O)N1CCNC(=O)c3cccc(c3O)C(=O)NCCN(CCNC(=O)c3cccc(c3O)C(=O)NCC1)CC2 [NCP 272-Tb]

Life Time ([4]; Eu complexes, Table 2): 505 ms
Compound: O=C1NCCN2CCNC(=O)c3cccc(c3O)C(=O)NCCN(CCNC(=O)c3cccc1c3O)C(=O)N1CCNC(=O)c3cccc(c3O)C(=O)NCCN(CCNC(=O)c3cccc(c3O)C(=O)NCC1)CC2 [NCP 275-Eu]

Life Time [2]: 1.39 ms
Compound: O=C1NCCN2CCNC(=O)c3cccc(c3O)C(=O)NCCN(CCNC(=O)c3cccc1c3O)C(=O)N1CCNC(=O)c3cccc(c3O)C(=O)NCCN(CCNC(=O)c3cccc(c3O)C(=O)NCC1)CC2 [NCP 275-Tb]

τPBS (fluorescence lifetime) [1]: 2.23 ms
Emission λmax [1]: 545 nm
εmax [1]: 10,800 M^−1cm^−1
λmax, Abs [1]: 340 nm
Compound: BH(2,2)IAM-N-carboxymethyl-Halotag [NCP166]
